The subject of the experiment is tobacco budworm (Heliothis virescens [Fabricius]). The experiment in a line: surface-treated diet test against the tobacco budworm. In kind it is in vivo. Conditions: tobacco budworm second instar larvae, surface-treated diet, 0.25 millimoles of candidate insecticide on the surface of the diet, five-day exposure; for Percent Mortality: compared to total number of insects infested; for Percent Growth Inhibition: inhibition of insect weight relative to untreated controls. The method in brief: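 Wheat germ artificial diet surface-treated with 40 µL of 50 mM DMSO stock diluted 1:7 in 1:1 water/acetone (0.25 millimolar on diet), or sub-multiples for rate tests. One second-instar larva per well, 25° C, 60% RH, 5 days; percent weight inhibition vs DMSO controls and percent mortality.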

For `O=C(Nc1ccc(OC(F)(F)F)cc1)OC(c1ccc(C(F)(F)F)cc1)C1CCN(Cc2ccc(Oc3ccccn3)cc2)CC1` (stereo not drawn) [Compound 249], the “Percent Mortality” value is on record as 100% and the “Percent Growth Inhibition” value worked out at 100%.
Take `O=C(Nc1ccc(-c2ccccc2)cc1)OC(c1ccc(C(F)(F)F)cc1)C1CCN(Cc2ccc(Oc3ccccn3)cc2)CC1` (stereo not drawn) [Compound 250]: the “Percent Mortality” value is 100% and the “Percent Growth Inhibition” value is recorded as 100%.
Consider `CCn1nnc(-c2ccc(CN3CCC(C(OC(=O)Nc4ccccc4)c4ccc(OC(F)(F)F)cc4)CC3)cc2)n1` (stereo not drawn) [Compound 261], for which the “Percent Mortality” value is given as 100% and the “Percent Growth Inhibition” value was determined as 100%.
On to `Cn1nnc(-c2ccc(CN3CCC(C(OC(=O)Nc4ccccc4Cl)c4ccc(OC(F)(F)F)cc4)CC3)cc2)n1` (stereo not drawn) [Compound 262], for which the “Percent Mortality” value is on record as 100% and the “Percent Growth Inhibition” value is 100%.
Take `Cn1nnc(-c2ccc(CN3CCC(C(OC(=O)Nc4cccc(Cl)c4)c4ccc(OC(F)(F)F)cc4)CC3)cc2)n1` (stereo not drawn) [Compound 263]: the “Percent Mortality” value is listed as 100% and the “Percent Growth Inhibition” value stood at 100%.
As to `Cn1nnc(-c2ccc(CN3CCC(C(OC(=O)Nc4ccc(Cl)cc4)c4ccc(Cl)cc4)CC3)cc2)n1` (stereo not drawn) [Compound 264], the “Percent Mortality” value stood at 100% and the “Percent Growth Inhibition” value is given as 100%.
For the compound `CCn1nnc(-c2ccc(CN3CCC(C(OC(=O)Nc4ccc(Cl)cc4)c4ccc(C(F)(F)F)cc4)CC3)cc2)n1` (stereo not drawn) [Compound 265], the “Percent Mortality” value turned out to be 100% and the “Percent Growth Inhibition” value is 100%.
Take `Cn1nnc(-c2ccc(CN3CCC(C(OC(=O)Nc4ccc(Cl)cc4)c4ccc(OC(F)(F)F)cc4)CC3)cc2)n1` (stereo not drawn) [Compound 266]: the “Percent Mortality” value came to 100% and the “Percent Growth Inhibition” value was found to be 100%.
For `CCn1nnc(-c2ccc(CN3CCC(C(OC(=O)Nc4ccc(Cl)cc4)c4ccc(OC(F)(F)F)cc4)CC3)cc2)n1` (stereo not drawn) [Compound 267], the “Percent Mortality” value was 100% and the “Percent Growth Inhibition” value was 100%.
As to `CCn1nnc(-c2ccc(CN3CCC(C(OC(=O)Nc4cccc(Br)c4)c4ccc(C(F)(F)F)cc4)CC3)cc2)n1` (stereo not drawn) [Compound 268], the “Percent Mortality” value turned out to be 100% and the “Percent Growth Inhibition” value worked out at 100%.
With `CCn1nnc(-c2ccc(CN3CCC(C(OC(=O)Nc4ccc(Br)cc4)c4ccc(C(F)(F)F)cc4)CC3)cc2)n1` (stereo not drawn) [Compound 269], the “Percent Mortality” value is reported as 100% and the “Percent Growth Inhibition” value is listed as 100%.
In the case of `CCn1nnc(-c2ccc(CN3CCC(C(OC(=O)Nc4ccc(Br)cc4)c4ccc(OC(F)(F)F)cc4)CC3)cc2)n1` (stereo not drawn) [Compound 270], the “Percent Mortality” value was 100% and the “Percent Growth Inhibition” value is on record as 100%.
In the case of `CCn1nnc(-c2ccc(CN3CCC(C(OC(=O)Nc4ccc(I)cc4)c4ccc(OC(F)(F)F)cc4)CC3)cc2)n1` (stereo not drawn) [Compound 271], the “Percent Mortality” value came to 100% and the “Percent Growth Inhibition” value is listed as 100%.
Turning to `Cn1nnc(-c2ccc(CN3CCC(C(OC(=O)Nc4ccccc4F)c4ccc(OC(F)(F)F)cc4)CC3)cc2)n1` (stereo not drawn) [Compound 272], the “Percent Mortality” value amounted to 99% and the “Percent Growth Inhibition” value was 100%.
Consider `Cn1nnc(-c2ccc(CN3CCC(C(OC(=O)Nc4cccc(F)c4)c4ccc(OC(F)(F)F)cc4)CC3)cc2)n1` (stereo not drawn) [Compound 273], for which the “Percent Mortality” value is 100% and the “Percent Growth Inhibition” value was found to be 100%.
Take `Cn1nnc(-c2ccc(CN3CCC(C(OC(=O)Nc4ccc(F)cc4)c4ccc(Cl)cc4)CC3)cc2)n1` (stereo not drawn) [Compound 274]: the “Percent Mortality” value is on record as 100% and the “Percent Growth Inhibition” value was determined as 100%.
On to `Cn1nnc(-c2ccc(CN3CCC(C(OC(=O)Nc4ccc(F)cc4)c4ccc(OC(F)(F)F)cc4)CC3)cc2)n1` (stereo not drawn) [Compound 275], for which the “Percent Mortality” value stood at 100% and the “Percent Growth Inhibition” value is listed as 100%.
Take `CCn1nnc(-c2ccc(CN3CCC(C(OC(=O)Nc4ccc(F)cc4)c4ccc(OC(F)(F)F)cc4)CC3)cc2)n1` (stereo not drawn) [Compound 277]: the “Percent Mortality” value is 100% and the “Percent Growth Inhibition” value turned out to be 100%.
`CCn1nnc(-c2ccc(CN3CCC(C(OC(=O)Nc4ccc(Cl)cc4Cl)c4ccc(C(F)(F)F)cc4)CC3)cc2)n1` (stereo not drawn) [Compound 280]: the “Percent Mortality” value worked out at 100% and the “Percent Growth Inhibition” value was found to be 100%.
On to `CCn1nnc(-c2ccc(CN3CCC(C(OC(=O)Nc4cc(Cl)ccc4Cl)c4ccc(C(F)(F)F)cc4)CC3)cc2)n1` (stereo not drawn) [Compound 281], for which the “Percent Mortality” value is listed as 100% and the “Percent Growth Inhibition” value was 100%.
Turning to `CCn1nnc(-c2ccc(CN3CCC(C(OC(=O)Nc4c(Cl)cccc4Cl)c4ccc(C(F)(F)F)cc4)CC3)cc2)n1` (stereo not drawn) [Compound 282], the “Percent Mortality” value is reported as 0% and the “Percent Growth Inhibition” value turned out to be 95%.
Taken in the same sequence, the figures for `CCn1nnc(-c2ccc(CN3CCC(C(OC(=O)Nc4ccc(Cl)c(Cl)c4)c4ccc(C(F)(F)F)cc4)CC3)cc2)n1` (stereo not drawn) [Compound 283] were 100% and 100%.
Taken in the same sequence, the figures for `CCn1nnc(-c2ccc(CN3CCC(C(OC(=O)Nc4cc(Cl)cc(Cl)c4)c4ccc(C(F)(F)F)cc4)CC3)cc2)n1` (stereo not drawn) [Compound 284] were 100% and 100%.
Taken in the same sequence, the figures for `CCn1nnc(-c2ccc(CN3CCC(C(OC(=O)Nc4ccc(C)cc4)c4ccc(OC(F)(F)F)cc4)CC3)cc2)n1` (stereo not drawn) [Compound 285] were 100% and 100%.
Turning to `CCn1nnc(-c2ccc(CN3CCC(C(OC(=O)Nc4ccc(C(C)C)cc4)c4ccc(OC(F)(F)F)cc4)CC3)cc2)n1` (stereo not drawn) [Compound 286], the “Percent Mortality” value was found to be 50% and the “Percent Growth Inhibition” value was found to be 94%.
Taken in the same sequence, the figures for `CCn1nnc(-c2ccc(CN3CCC(C(OC(=O)Nc4cccc(C(F)(F)F)c4)c4ccc(C(F)(F)F)cc4)CC3)cc2)n1` (stereo not drawn) [Compound 288] were 100% and 100%.
The corresponding values for `CCn1nnc(-c2ccc(CN3CCC(C(OC(=O)Nc4ccc(C(F)(F)F)cc4)c4ccc(C(F)(F)F)cc4)CC3)cc2)n1` (stereo not drawn) [Compound 289] are 100% and 100%.
Turning to `Cn1nnc(-c2ccc(CN3CCC(C(OC(=O)Nc4ccc(C(F)(F)F)cc4)c4ccc(OC(F)(F)F)cc4)CC3)cc2)n1` (stereo not drawn) [Compound 290], the “Percent Mortality” value was found to be 100% and the “Percent Growth Inhibition” value stood at 100%.
As for `CCn1nnc(-c2ccc(CN3CCC(C(OC(=O)Nc4ccc(C(F)(F)F)cc4)c4ccc(OC(F)(F)F)cc4)CC3)cc2)n1` (stereo not drawn) [Compound 291], the “Percent Mortality” value is reported as 100% and the “Percent Growth Inhibition” value came to 95%.
As for `CCn1nnc(-c2ccc(CN3CCC(C(OC(=O)Nc4ccc(Cl)c(C(F)(F)F)c4)c4ccc(C(F)(F)F)cc4)CC3)cc2)n1` (stereo not drawn) [Compound 292], the “Percent Mortality” value came out at 100% and the “Percent Growth Inhibition” value worked out at 100%.
With `CCn1nnc(-c2ccc(CN3CCC(C(OC(=O)Nc4cc(C(F)(F)F)cc(C(F)(F)F)c4)c4ccc(C(F)(F)F)cc4)CC3)cc2)n1` (stereo not drawn) [Compound 293], the “Percent Mortality” value is on record as 17% and the “Percent Growth Inhibition” value is recorded as 93%.
Taken in the same sequence, the figures for `Cn1nnc(-c2ccc(CN3CCC(C(OC(=O)Nc4ccc(OC(F)(F)F)cc4)c4ccc(OC(F)(F)F)cc4)CC3)cc2)n1` (stereo not drawn) [Compound 294] were 100% and 100%.
For the compound `CCn1nnc(-c2ccc(CN3CCC(C(OC(=O)Nc4ccc(OC(F)(F)F)cc4)c4ccc(OC(F)(F)F)cc4)CC3)cc2)n1` (stereo not drawn) [Compound 295], the “Percent Mortality” value is on record as 100% and the “Percent Growth Inhibition” value is on record as 92%.
The corresponding values for `CCn1nnc(-c2ccc(CN3CCC(C(OC(=O)Nc4ccc(-c5ccccc5)cc4)c4ccc(C(F)(F)F)cc4)CC3)cc2)n1` (stereo not drawn) [Compound 297] are 100% and 100%.
The corresponding values for `CCn1nnc(-c2ccc(CN3CCC(C(OC(=O)Nc4ccc(Oc5ccccc5)cc4)c4ccc(C(F)(F)F)cc4)CC3)cc2)n1` (stereo not drawn) [Compound 298] are 100% and 100%.
The corresponding values for `CCn1nnc(-c2ccc(CN3CCC(C(OC(=S)Nc4ccc(C(F)(F)F)cc4)c4ccc(OC(F)(F)F)cc4)CC3)cc2)n1` (stereo not drawn) [Compound 302] are 100% and 100%.
For `CCn1nnc(-c2ccc(CN3CCC(C(OCc4ccc(C(F)(F)F)cc4)c4ccc(OC(F)(F)F)cc4)CC3)cc2)n1` (stereo not drawn) [Compound 304], the “Percent Mortality” value was 100% and the “Percent Growth Inhibition” value amounted to 95%.
The corresponding values for `CCn1nnc(-c2ccc(CN3CCC(C(OCc4ccc(OC(F)(F)F)cc4)c4ccc(OC(F)(F)F)cc4)CC3)cc2)n1` (stereo not drawn) [Compound 305] are 100% and 95%.
The corresponding values for `Cn1nnc(-c2ccc(COC(c3ccc(OC(F)(F)F)cc3)C3CCN(Cc4ccc(-c5nnn(C)n5)cc4)CC3)cc2)n1` (stereo not drawn) [Compound 306] are 33% and 59%.
Taken in the same sequence, the figures for `CCn1nnc(-c2ccc(CN3CCC(C(OC(=O)c4ccc(C(F)(F)F)cc4)c4ccc(OC(F)(F)F)cc4)CC3)cc2)n1` (stereo not drawn) [Compound 307] were 100% and 92%.
In the case of `CCn1nnc(-c2ccc(CN3CCC(C(OC(=O)c4ccc(OC(F)(F)F)cc4)c4ccc(OC(F)(F)F)cc4)CC3)cc2)n1` (stereo not drawn) [Compound 308], the “Percent Mortality” value is on record as 100% and the “Percent Growth Inhibition” value is on record as 92%.
Taken in the same sequence, the figures for `Cn1nnc(-c2ccc(CN3CCC(C(NCc4ccccc4Cl)c4ccc(OC(F)(F)F)cc4)CC3)cc2)n1` (stereo not drawn) [Compound 309] were 100% and 100%.

These data come from patent publication US7300946B2, “N-(substituted arylmethyl)-4-(disubstituted methyl) piperidines and pyridines” (Bayer CropScience AG, priority 2002, dated 2007).
